From PubChem BioAssay AID1963437 (Molecular Pharmacology Branch, DTP, NCI, 2024)

Tested on: OVCAR-8 complex spheroid, growth inhibition
Test: Anticancer human tumor OVCAR-8 cell line growth inhibition [Asc];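 note: spheroids exposed to agents for 7 days before readout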;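 for viability, T/C: percent viability relative to DMSO vehicle wells taken as 100%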
Details: for IC50: curve of first compound; for viability, T/C: stronger effect = lower value
Summary of the method: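 Stromal components (HUVEC and hMSC) are co-assembled with the cancer cells into multicellular spheroids. Drugs are then added singly or paired, at concentrations falling by half-log increments from a clinically achievable maximum, capped at 10 microM without known Cmax.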

[1] = second compound 0.00316 µM, first compound 0.00316 µM
[2] = second compound 0.00316 µM, first compound 0.01 µM
[3] = second compound 0.00316 µM, first compound 0.0316 µM
[4] = second compound 0.00316 µM, first compound 0.1 µM
[5] = second compound 0.01 µM, first compound 0.00316 µM
[6] = second compound 0.01 µM, first compound 0.01 µM
[7] = second compound 0.01 µM, first compound 0.0316 µM
[8] = second compound 0.01 µM, first compound 0.1 µM
[9] = second compound 0.0316 µM, first compound 0.00316 µM
[10] = second compound 0.0316 µM, first compound 0.01 µM
[11] = second compound 0.0316 µM, first compound 0.0316 µM
[12] = second compound 0.0316 µM, first compound 0.1 µM
[13] = second compound 0.1 µM, first compound 0.00316 µM
[14] = second compound 0.1 µM, first compound 0.01 µM
[15] = second compound 0.1 µM, first compound 0.0316 µM
[16] = second compound 0.1 µM, first compound 0.1 µM
[17] = second compound 0.316 µM, first compound 0.00316 µM
[18] = second compound 0.316 µM, first compound 0.01 µM
[19] = second compound 0.316 µM, first compound 0.0316 µM
[20] = second compound 0.316 µM, first compound 0.1 µM
[21] = second compound 1 µM, first compound 0.00316 µM
[22] = second compound 1 µM, first compound 0.01 µM
[23] = second compound 1 µM, first compound 0.0316 µM
[24] = second compound 1 µM, first compound 0.1 µM
[25] = second compound 0.00316 µM, first compound 0.316 µM
[26] = second compound 0.00316 µM, first compound 1 µM
[27] = second compound 0.01 µM, first compound 0.316 µM
[28] = second compound 0.01 µM, first compound 1 µM
[29] = second compound 0.0316 µM, first compound 0.316 µM
[30] = second compound 0.0316 µM, first compound 1 µM
[31] = second compound 0.1 µM, first compound 0.316 µM
[32] = second compound 0.1 µM, first compound 1 µM
[33] = second compound 0.316 µM, first compound 0.316 µM
[34] = second compound 0.316 µM, first compound 1 µM
[35] = second compound 1 µM, first compound 0.316 µM
[36] = second compound 1 µM, first compound 1 µM

Structure (SMILES): Cn1ncnc1[C@H]1c2n[nH]c(=O)c3cc(F)cc(c23)N[C@@H]1c1ccc(F)cc1 + CNC(C)C(=O)NC1CN(S(=O)(=O)c2cccc(S(=O)(=O)N3CCC4CCC(C(=O)NC(c5ccccc5)c5ccccc5)N4C(=O)C(NC(=O)C(C)NC)C3)c2)CCC2CCC(C(=O)NC(c3ccccc3)c3ccccc3)N2C1=O
- IC50 (second compound 0.00316 µM): < 0.316 nM
- IC50 (second compound 0.01 µM): > 100 nM
- IC50 (second compound 0.0316 µM): > 100 nM
- IC50 (second compound 0.1 µM): > 100 nM
- IC50 (second compound 0.316 µM): > 100 nM
- IC50 (second compound 1 µM): > 100 nM
- viability, T/C (second compound 0.00316 µM, first compound 0.000316 µM): 1.94%
- viability, T/C (second compound 0.00316 µM, first compound 0.001 µM): 1.14%
- viability, T/C [1]: 0.66%
- viability, T/C [2]: 1.15%
- viability, T/C [3]: 0.71%
- viability, T/C [4]: 0.74%
- viability, T/C (second compound 0.01 µM, first compound 0.000316 µM): 106%
- viability, T/C (second compound 0.01 µM, first compound 0.001 µM): 100%
- viability, T/C [5]: 102%
- viability, T/C [6]: 109%
- viability, T/C [7]: 104%
- viability, T/C [8]: 120%
- viability, T/C (second compound 0.0316 µM, first compound 0.000316 µM): 91.7%
- viability, T/C (second compound 0.0316 µM, first compound 0.001 µM): 106%
- viability, T/C [9]: 91.9%
- viability, T/C [10]: 97.1%
- viability, T/C [11]: 99.9%
- viability, T/C [12]: 95.5%
- viability, T/C (second compound 0.1 µM, first compound 0.000316 µM): 106%
- viability, T/C (second compound 0.1 µM, first compound 0.001 µM): 101%
- viability, T/C [13]: 87.2%
- viability, T/C [14]: 95.1%
- viability, T/C [15]: 98.9%
- viability, T/C [16]: 94.6%
- viability, T/C (second compound 0.316 µM, first compound 0.000316 µM): 76.5%
- viability, T/C (second compound 0.316 µM, first compound 0.001 µM): 79.7%
- viability, T/C [17]: 84.5%
- viability, T/C [18]: 107%
- viability, T/C [19]: 97.6%
- viability, T/C [20]: 85.4%
- viability, T/C (second compound 1 µM, first compound 0.000316 µM): 69.5%
- viability, T/C (second compound 1 µM, first compound 0.001 µM): 81.3%
- viability, T/C [21]: 94.9%
- viability, T/C [22]: 86.4%
- viability, T/C [23]: 96.2%
- viability, T/C [24]: 95.5%

Structure (SMILES): O=C(c1cc(Cc2n[nH]c(=O)c3ccccc23)ccc1F)N1CCN(C(=O)C2CC2)CC1 + CNC(C)C(=O)NC1CN(S(=O)(=O)c2cccc(S(=O)(=O)N3CCC4CCC(C(=O)NC(c5ccccc5)c5ccccc5)N4C(=O)C(NC(=O)C(C)NC)C3)c2)CCC2CCC(C(=O)NC(c3ccccc3)c3ccccc3)N2C1=O
- IC50 (second compound 0.00316 µM): < 31.6 nM
- IC50 (second compound 0.01 µM): > 10000 nM
- IC50 (second compound 0.0316 µM): > 10000 nM
- IC50 (second compound 0.1 µM): > 10000 nM
- IC50 (second compound 0.316 µM): 9900 nM
- IC50 (second compound 1 µM): 6840 nM
- viability, T/C [3]: 0.81%
- viability, T/C [4]: 1.08%
- viability, T/C [25]: 0.69%
- viability, T/C [26]: 1.07%
- viability, T/C (second compound 0.00316 µM, first compound 3.16 µM): 1.9%
- viability, T/C (second compound 0.00316 µM, first compound 10 µM): 0.51%
- viability, T/C [7]: 111%
- viability, T/C [8]: 102%
- viability, T/C [27]: 101%
- viability, T/C [28]: 110%
- viability, T/C (second compound 0.01 µM, first compound 3.16 µM): 112%
- viability, T/C (second compound 0.01 µM, first compound 10 µM): 79.2%
- viability, T/C [11]: 94%
- viability, T/C [12]: 99.3%
- viability, T/C [29]: 101%
- viability, T/C [30]: 94.7%
- viability, T/C (second compound 0.0316 µM, first compound 3.16 µM): 103%
- viability, T/C (second compound 0.0316 µM, first compound 10 µM): 87%
- viability, T/C [15]: 80.3%
- viability, T/C [16]: 86.4%
- viability, T/C [31]: 88.6%
- viability, T/C [32]: 101%
- viability, T/C (second compound 0.1 µM, first compound 3.16 µM): 83.9%
- viability, T/C (second compound 0.1 µM, first compound 10 µM): 79.1%
- viability, T/C [19]: 83.7%
- viability, T/C [20]: 100%
- viability, T/C [33]: 90.4%
- viability, T/C [34]: 82.4%
- viability, T/C (second compound 0.316 µM, first compound 3.16 µM): 90.9%
- viability, T/C (second compound 0.316 µM, first compound 10 µM): 49.7%
- viability, T/C [23]: 79.2%
- viability, T/C [24]: 90.7%
- viability, T/C [35]: 99.5%
- viability, T/C [36]: 90.3%
- viability, T/C (second compound 1 µM, first compound 3.16 µM): 92.5%
- viability, T/C (second compound 1 µM, first compound 10 µM): 29.8%

Structure (SMILES): O=C(c1ccc(F)c(F)c1Nc1ccc(I)cc1F)N1CC(O)([C@@H]2CCCCN2)C1 + CNC(C)C(=O)NC1CN(S(=O)(=O)c2cccc(S(=O)(=O)N3CCC4CCC(C(=O)NC(c5ccccc5)c5ccccc5)N4C(=O)C(NC(=O)C(C)NC)C3)c2)CCC2CCC(C(=O)NC(c3ccccc3)c3ccccc3)N2C1=O
- IC50 (second compound 0.00316 µM): > 1000 nM
- IC50 (second compound 0.01 µM): > 1000 nM
- IC50 (second compound 0.0316 µM): 969 nM
- IC50 (second compound 0.1 µM): 641 nM
- IC50 (second compound 0.316 µM): 548 nM
- IC50 (second compound 1 µM): 508 nM
- viability, T/C [1]: 113%
- viability, T/C [2]: 97%
- viability, T/C [3]: 153%
- viability, T/C [4]: 166%
- viability, T/C [25]: 232%
- viability, T/C [26]: 84.5%
- viability, T/C [5]: 97.3%
- viability, T/C [6]: 101%
- viability, T/C [7]: 146%
- viability, T/C [8]: 185%
- viability, T/C [27]: 223%
- viability, T/C [28]: 98.7%
- viability, T/C [9]: 95.2%
- viability, T/C [10]: 99.8%
- viability, T/C [11]: 116%
- viability, T/C [12]: 163%
- viability, T/C [29]: 216%
- viability, T/C [30]: 47.5%
- viability, T/C [13]: 82.3%
- viability, T/C [14]: 82.2%
- viability, T/C [15]: 118%
- viability, T/C [16]: 168%
- viability, T/C [31]: 153%
- viability, T/C [32]: 5.38%
- viability, T/C [17]: 70.8%
- viability, T/C [18]: 80.3%
- viability, T/C [19]: 90.4%
- viability, T/C [20]: 120%
- viability, T/C [33]: 108%
- viability, T/C [34]: 2.09%
- viability, T/C [21]: 76.4%
- viability, T/C [22]: 94.9%
- viability, T/C [23]: 101%
- viability, T/C [24]: 106%
- viability, T/C [35]: 83.9%
- viability, T/C [36]: 1.27%
